Source: US20130039956A1, “USE OF NITROCARBOXYLIC ACIDS FOR THE TREATMENT, DIAGNOSIS AND PROPHYLAXIS OF AGGRESSIVE HEALING PATTERNS” (priority 2010, published 2013)

Legend:
Assay type in all cases: cell-based
fibroblasts [1] = assay: Biofouling and cell adherence at prosthetic materials (dip-coated polymer films); details: compared with native FA (control)
Description: Polymer scaffolds (polyurethane, polyvinylchloride, polylactate) which are used as implant materials were investigated. Solid and porous (pore sizes ranging from 50 to 150 micrometer) films of pure polymer scaffolds were cut into pieces (5×5 mm). After cleaning with NaOH and ethanol, they were dip-coated with native and nitrocarboxylic acids. Dip-coated pieces were suspended in a tube filled with argon and heated at 60° C. for 24 hours in the dark. Film pieces with and without coating were placed in a borosilicate glass tube that allowed fixation of two margins of the film pieces at the wall of the glass tube, thus, enabling a upright standing position in the center of the tube. Tubes were filled with various solutions for 12 hours. Solutions consisted of the following: 0.9% saline; 2% bovine albumin; 2% bovine albumin with addition of either fibronectin or laminin; and bovine serum. At the end of the exposure time, tubes were gently washed twice with 0.9% saline solution. One set of films was analyzed for protein absorption using a specific antibody staining method. An identically prepared set of films was further processed for cell cultures. A suspension containing preincubated fibroblasts in 1% FCS was added to the film-containing tubes. The tubes were tilted and adjusted in such a position so that the films were in a vertical orientation within the suspension. […] Tubes had two openings at the upper half (of the tilt tubes) that allowed free exchange of the atmosphere above the solution with the surrounding atmosphere. Sets were incubated at standard conditions for 24, 48, and 96 hours, respectively. Thereafter, films were carefully removed and rinsed with 0.9% saline solution. The cellularity and the shape of the cells on both sides of the films were evaluated after staining (Gimsa) using a reflected light microscope.

[2] = tested on: human umbellical endothelial cells (HUVEC); assay: Adhesion, propagation and growth of endothelial cells on coated polystyrene films; details: days 3, 7, 14, compared with native FA
Description: Polystyrene scaffolds were prepared and pretreated in the same manner as performed in example 1 by using the same nitrocarboxylic acids as listed in table 1. The film samples were placed in a culture dish containing a gel matrix, in which human umbellical endothelial cells (HUVEC) had been allowed to grow to confluence. The culture medium consisted of 5% FCS, which was replaced every 5 days. Cultivation was performed according to standard conditions. Films were evaluated at days 3, 7, and 14 after careful extraction from the culture dishes, rinsing with saline solution, and staining with methylene blue. Using a reflected light microscope, the films were immediately examined to evaluate the following: Propagation of cells to the film center, cell confluidity, multilayer formation, and cell shape.

fibroblasts [3] = assay: Mechanical alteration of fibroblasts (cyclic stretching of coated polypropylene meshes); details: cyclic stretching, day 7, day 21, 8 weeks, compared with native FA
From the text: In order to simulate the effects of chronic shear forces on a healing wound, an in vitro model was established. A flat balloon was placed on the bottom of a Petri dish. A silicone sheet was placed above and sealed with the side of the Petri dish. Then a 3 mm agar layer was casted on top of the sheet. Commercially available polypropylene meshes for hernia repair (microporous mesh, a low-weight and macroporous mesh with absorbable polyglactin filaments, and a heavy-weight and microporous mesh) were placed on the agar plates and fixed at 4 points at the side of the Petri dish. This setting enabled stretching of the meshes by filling the balloons with air, which was performed at 10-second intervals using an automated pumping device. The model can be used to evaluate the effect of three-dimensional (3D) shear forces on cell growth during cell cultivation. Preincubated suspensions of fibroblasts (1.5×10(5) cells) in a culture medium (10% FCS) were added to the culture dishes and allowed to grow for 48 hours. Cyclic stretching was started at day 3. Histological analysis was performed from the central portions of the meshes at day 7, at day 21, and after 8 weeks. The scaffolds were detached from the culture plate and carefully rinsed. Then, they were cut into pieces, casted, and further processed for standard histology and immunohistology. Care was taken to achieve a cutting plane that was vertical to the surface plane of the meshes. Histological analysis evaluated the cellularity, the content of extra cellular matrix (ECM), and the magnitude of protein synthesis. Meshes were dip-coated with native and nitro fatty acids or left blank in the same manner as in example 1. The uncoated meshes served as controls.

[4] = tested on: Murine macrophage-like cells RAW 264.7 and murine L929 fibroblasts; assay: Monocyte/fibroblast co-culture on coated surgical suture material; details: dip-coated suture material, 24 and 48 hours; compared with native FA
From the text: In order to determine immunoreactions to foreign material and its consequence on fibrogenesis, co-cultures of fibroblasts and monocytes were used. Commercially available suture materials (propylene, polyamide, and silk) were dip-coated with corresponding native and nitrated fatty acids. Untreated suture material served as control. Treated and untreated suture materials were out in small pieces and placed in a 96-well plate.
Murine macrophage-like cells RAW 264.7 and murine L929 fibroblasts were cultured to a population density of 5×10(5) each. Cell suspensions were merged achieving a cellularity of approximately 2.5×10(5) cell/ml of each cell population which were added to the wells. The suture material samples were fully covered by the suspension. Wells were continuously and gently shaken throughout the incubation period.
Supernatants were collected for assays after 24 and 48 hours and analyzed for profibrotic cytokines IL-13, IL-4, and IL-6, TGF-β1, collagen I.

human dermal fibroblasts = assay: Extra cellular matrix production (collagen-1) in response to TGF-β2 in dermal fibroblasts; details: 10 and 50 μmol, TGF-β2 25 ng/ml, 48 hours; compared with native FA
Description: In order to determine whether PPRA gamma stimulation due to nitrated fatty acids plays a role in the inventive inhibition of an aggressive healing pattern to an irritating stimulus, human dermal fibroblasts were investigated. A dominant-negative PPAR gamma mutant (L466A) cell clone was generated by polymerase chain reaction-based site-directed mutagenesis. Presence of PPAR gamma or absence was investigated using a PPAR gamma antibody reaction which was determined using an enhanced chemiluminescence detection system. Furthermore, one cell series was incubated with a selective irreversible PPAR gamma ligand (GW9662, 1 μmol), which effectively blocks PPAR gamma receptors.
Sequential cultivation of human dermal fibroblasts was performed in EMEM containing 5 mM glucose supplemented with 10% FCS under standard cultivation conditions. Cells were allowed to grow to confluence in a 96-well plate. Wild-type fibroblasts and PPAR gamma deficient fibroblasts were investigated by a set-up of 2×10 sample sets comprising: (1) blank control; (2) stimulation control; (3) preincubation with the PPAR gamma antagonist GW9662 (Cayman Chemical); (4) preincubation with the PPAR agonist troglitazone (25 μmol). In 2×4 sample sets, native fatty acids were added to the medium to achieve a final concentration of 10 and 50 μmol, respectively; in another 2×4 sets the nitrated fatty acids were added to the medium in the same concentration, while 2×2 sets served as controls. In 10 of the sets, TGF-β2 was added to the culture medium at a concentration of 25 ng/ml. Cultivation was continued for 48 hours and then processed in order to analyze collagen-1 as measured by enhanced chemiluminescence detection of immuncomplexes.
Also: key: 0: not superior to native FA (control); +: Superior to native FA; ++: superior to both; +++: outstanding effect.

Compound	Relative differences: effect on biofouling and cell adherence (fibroblasts [1])	Relative differences: effect on adhesion, propagation and growth of endothelial cells [2]	Relative effect on fibroblasts under mechanical alteration (fibroblasts [3])	Relative effect on profibrotic cytokines and collagen I on suture material [4]	Relative effect on collagen-1 production in response to TGF-β2 (human dermal fibroblasts)
CCCCCC=CCC=C(CC=CCC=CCCCC(=O)O)[N+](=O)[O-] [compound 14, 11-nitro-5,8,11,14-eicosatrienoic acid]	+	+	0	+	+
CCCCCC/C=C(\CCCCCCCC(=O)O)[N+](=O)[O-] [compound 16, 9-nitro-9-trans-hexadecenoic acid]	++	+	++	+	0
CCCCCCCC/C=C(/CCCCCCCCCCCC(=O)O)[N+](=O)[O-] [compound 17, 13-nitro-cis-13-docosenoic acid]	+	0	+	+	+
CCCCC/C=C(/C/C=C\C/C=C(/C/C=C\CCCC(=O)O)[N+](=O)[O-])[N+](=O)[O-] [compound 18, 8,14-nitro-cis-5,8,11,14-eicosatetraenoic acid]	+	+	+	0	+
CCC=CCC=C(CC=CCC=CCC=CCC=C(CCC(=O)O)[N+](=O)[O-])[N+](=O)[O-] [compound 19, 4,16-nitro-docosahexaenoic acid]	+	+	++	+	+
CCCCCC=CCC=C(CC=CC/C=C\CCCC(=O)O)[N+](=O)[O-] [compound 22, 11-nitro-cis-5,8,11,14-eicosatetraenoic acid]	+	++	++	+	++
